Assay results as given in ChEMBL document CHEMBL1201862, “PubChem BioAssay data set” (2004).
The source made the active and inactive calls.

How the values were obtained:
Prothrombin = Prothrombin (Homo sapiens, UniProt P00734); experiment: Thrombin 1536 HTS Dose Response Confirmation. [Related pubchem assays: 1046 (Thrombin 1536 HTS; hits were confirmed in this assay)]; type: functional
Estrogen receptor beta = Estrogen receptor beta (Homo sapiens, UniProt Q92731);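 also: recombinant ER-beta bound to coactivator SRC1 peptide in presence of estradiol agonist; inhibitors block coactivator peptide binding and lower the FRET signal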
[1] = target: T1, Oxysterols receptor LXR-beta (Homo sapiens, UniProt P55055); type: functional, cell-based
T1 sequence (P55055 whole entry): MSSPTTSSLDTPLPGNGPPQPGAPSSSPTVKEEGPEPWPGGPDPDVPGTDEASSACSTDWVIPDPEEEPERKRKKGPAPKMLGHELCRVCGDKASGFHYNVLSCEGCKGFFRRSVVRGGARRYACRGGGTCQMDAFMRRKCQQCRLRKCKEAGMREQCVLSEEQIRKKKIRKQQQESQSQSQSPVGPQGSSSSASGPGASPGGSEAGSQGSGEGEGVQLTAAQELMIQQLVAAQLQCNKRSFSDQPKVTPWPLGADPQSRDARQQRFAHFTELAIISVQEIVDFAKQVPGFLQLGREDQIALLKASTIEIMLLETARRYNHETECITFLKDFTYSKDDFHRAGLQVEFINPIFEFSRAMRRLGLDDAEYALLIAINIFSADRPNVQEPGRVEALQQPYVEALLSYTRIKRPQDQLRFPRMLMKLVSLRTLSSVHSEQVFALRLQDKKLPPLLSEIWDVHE

[2] = inhibitors of intracellular T. cruzi replication, confirmation, NIH3T3 host cells, beta-gal luminescence (AID 2044); type: functional, cell-based;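 also: intracellular parasites grown in NIH/3T3 mouse fibroblasts as host cells; luminescent beta-galactosidase reporter signal from transgenic T. cruzi replicating inside host cells; inhibitors lower the luminescence signal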
[3] = cytotoxicity toward NIH3T3 fibroblasts, dose response, counter-screen, cell-based, ATP luminescence, mouse fibroblasts (AID 2010); type: functional;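 also: cells exposed to compound for about 90 hours before reading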
cells [4] = experiment: cells
[5] = HEp-2 cell cytotoxicity, dose response, cytotoxicity control for RSV inhibitor project, HTS (AID 2410); type: functional; details: human respiratory syncytial virus
Aminopeptidase N = target: T2, Aminopeptidase N (Plasmodium falciparum FcB1/Columbia, UniProt O96935); experiment: P. falciparum M1AAP inhibitors, biochemical, fluorogenic H-Leu-NHMec substrate, 1536-well (AID 1445); set-up: species or system Plasmodium falciparum 3D7, 3D7
T2 sequence (O96935 whole entry): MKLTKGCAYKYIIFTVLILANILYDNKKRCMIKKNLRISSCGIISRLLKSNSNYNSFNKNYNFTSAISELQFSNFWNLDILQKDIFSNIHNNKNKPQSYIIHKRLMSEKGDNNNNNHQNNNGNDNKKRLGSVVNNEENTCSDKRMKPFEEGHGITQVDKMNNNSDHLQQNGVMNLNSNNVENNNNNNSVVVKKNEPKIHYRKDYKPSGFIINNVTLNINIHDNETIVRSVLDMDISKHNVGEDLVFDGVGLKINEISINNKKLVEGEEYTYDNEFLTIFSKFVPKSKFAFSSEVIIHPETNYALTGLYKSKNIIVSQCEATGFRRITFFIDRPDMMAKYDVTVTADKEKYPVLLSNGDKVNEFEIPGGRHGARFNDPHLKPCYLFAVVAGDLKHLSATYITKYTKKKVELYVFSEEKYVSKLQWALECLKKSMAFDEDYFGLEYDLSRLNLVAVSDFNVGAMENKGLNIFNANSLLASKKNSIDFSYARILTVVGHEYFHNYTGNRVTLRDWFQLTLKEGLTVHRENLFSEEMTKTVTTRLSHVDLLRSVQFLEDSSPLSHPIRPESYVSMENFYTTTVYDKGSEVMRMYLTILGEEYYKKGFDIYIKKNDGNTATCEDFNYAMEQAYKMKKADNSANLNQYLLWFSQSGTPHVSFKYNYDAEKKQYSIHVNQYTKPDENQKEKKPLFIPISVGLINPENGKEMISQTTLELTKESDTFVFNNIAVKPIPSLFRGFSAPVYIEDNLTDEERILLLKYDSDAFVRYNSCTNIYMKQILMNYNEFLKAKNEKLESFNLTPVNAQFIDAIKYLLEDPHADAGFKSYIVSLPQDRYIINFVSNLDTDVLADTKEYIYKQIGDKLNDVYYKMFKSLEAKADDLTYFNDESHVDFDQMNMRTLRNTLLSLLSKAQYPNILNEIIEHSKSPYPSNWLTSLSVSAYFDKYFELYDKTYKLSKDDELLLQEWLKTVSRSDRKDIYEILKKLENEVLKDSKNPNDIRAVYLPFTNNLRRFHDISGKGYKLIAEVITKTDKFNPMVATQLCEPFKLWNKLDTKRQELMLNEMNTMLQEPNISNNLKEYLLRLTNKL

Galanin receptor type 3 = target: T3, Galanin receptor type 3 (Homo sapiens, UniProt O60755); experiment: Fluorescence-based cell-based primary high throughput dose response assay to identify antagonists of the Galanin Receptor 3 (GalR3).; type: functional
T3 sequence (O60755 whole entry): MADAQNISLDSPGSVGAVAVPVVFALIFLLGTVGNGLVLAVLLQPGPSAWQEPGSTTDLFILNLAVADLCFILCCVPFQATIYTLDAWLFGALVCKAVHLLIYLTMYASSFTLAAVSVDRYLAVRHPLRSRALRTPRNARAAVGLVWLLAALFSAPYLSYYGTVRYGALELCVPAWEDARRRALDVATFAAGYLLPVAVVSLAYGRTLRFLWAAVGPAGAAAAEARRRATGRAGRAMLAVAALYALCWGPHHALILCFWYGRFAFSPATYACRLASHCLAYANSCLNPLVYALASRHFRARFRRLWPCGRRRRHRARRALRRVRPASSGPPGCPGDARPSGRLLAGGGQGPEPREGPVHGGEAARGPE

cells [6] = type: functional, cell-based; details: HEK-CNG
Albumin = Albumin (Bos taurus, UniProt P02769); experiment: Counterscreen for inhibitors of T-cell receptor (TCR)-CD3 interaction: Fluorescence-based biochemical high throughput dose response assay to identify inhibitors of T-cell receptor (TCR)-CD3 interaction using a TAMRA-labeled BSA probe.; type: functional
Major prion protein = Major prion protein (Homo sapiens, UniProt P04156); type: functional, cell-based
cells [7] = experiment: cells; remark: listed apart in the source
Cytochrome P450 3A4 = Cytochrome P450 3A4 (Homo sapiens, UniProt P08684);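 also: CYP3A4 tested as one member of a cytochrome P450 panel screen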
cells [8] = experiment: cells; remark: listed apart in the source
[9] = Luminescence-based cell-based high throughput dose response assay to identify activators of the DAF-12 from the parasite S. stercoralis (ssDAF-12).; type: functional
[10] = target: T1, Oxysterols receptor LXR-beta; type: functional, cell-based; remark: listed apart in the source
[11] = target: T1, Oxysterols receptor LXR-beta; experiment: LXR agonists, Gal4 luciferase reporter, dose response, counter-screen for ssDAF-12 agonist project, cell-based, luminescence, HEK293, S. stercoralis campaign (AID 720737); type: functional; details: read-out: IC50 (the source's name)

With `CC1CCc2c(sc(NC(=O)COC(=O)C3CCCO3)c2C#N)C1` (stereo not drawn) the IC50 (Prothrombin) was > 50 µM (not active).
For `O=C(Nc1cc(C(F)(F)F)ccc1N1CCOCC1)C1Cc2ccccc2CN1C(=O)c1ccco1` (stereo not drawn), the IC50 (Estrogen receptor beta) was 5.94 µM (active).
In the case of `COc1ccc(CN2C(=O)c3ccccc3C2C(=O)NC2CCCCCC2)c(OC)c1` (stereo not drawn), the IC50 (Prothrombin) is reported as 10.8 µM (active).
For `Cc1cc(OCc2cc(C(=O)NCc3cc(C(C)C)no3)no2)cc(C)c1Cl`, the EC50 [1] was > 67.5 µM (inactive).
In the case of `Cc1ccc(C)c(Nc2c([N+](=O)[O-])cc(C(=O)N3CC(=O)Nc4ccccc43)cc2[N+](=O)[O-])c1`, the EC50 [2] is reported as 0.992 µM (active), the EC50 [3] is reported as > 60 µM (inconclusive) and the IC50 (cells [4]) is reported as 41.7 µM (active). The CC50 [5] was 28.3 µM (active).
In the case of `CCN1CCN(Cc2c(O)c(Cl)cc3c(C)cc(=O)oc23)CC1`, the IC50 (Estrogen receptor beta) is reported as 18 µM (active) and the IC50 (Aminopeptidase N) is reported as 38.3 µM (active).
In the case of `CC1(C)CC2CC(C)(CN2S(=O)(=O)c2ccc(C(=O)Nc3cccc(S(=O)(=O)N4CCOCC4)c3)cc2)C1` (stereo not drawn), the IC50 (Galanin receptor type 3) is reported as 0.805 µM (active), the EC50 (cells [6]) is reported as > 29.9 µM (inactive) and the IC50 (Albumin) is reported as > 94.1 µM (inactive).
With `Cc1ccc(C(=O)N/C(=C/c2ccc(C(C)C)cc2)C(=O)NCCCN2CCOCC2)cc1` the IC50 (cells [4]) was 13.2 µM (active) and the CC50 [5] was > 50 µM (active).
With `CCc1nc(SCC(=O)NNC(=O)c2ccc(C)cc2)c2ccccc2n1` the IC50 (Major prion protein) was 1.36 µM (active) and the IC50 (cells [7]) was > 138 µM (inactive).
With `CCOC(=O)CSc1nnc(NC(=O)c2ccccc2)[nH]1` the AC50 (Cytochrome P450 3A4) was 39.8 µM (inconclusive) and the IC50 (Prothrombin) was 0.862 µM (active).
With `Cn1cc(Cl)c(C(=O)Nc2nc3ccccc3s2)n1` the EC50 (cells [8]) was > 67.5 µM (inactive), the IC50 [9] was > 67.5 µM (inactive) and the EC50 [10] was > 67.5 µM (inactive). For the same compound, the EC50 [11] was > 67.5 µM (inactive).
